Reference: patent US5089273A, “Ecteinascidins 729, 743, 745, 759A, 759B and 770” (priority 1990, dated 1992)
Converted amounts (≈) assume the structure as drawn.

Legend:
[1] = system: CV-1 cells; assay: Cytotoxic activity vs. CV-1 cells (disk zones of inhibition); format: cell-based; conditions: Cercopithecidae, read-out: Zones of Inhibition; for zone of inhibition at 0.05 µg/disc: 50 ng/6.35-mm disk; for zone of inhibition at 0.1 µg/disc: 100 ng/6.35-mm disk; for zone of inhibition at 0.2 µg/disc: 200 ng/6.35-mm disk; for zone of inhibition at 0.4 µg/disc: 400 ng/6.35-mm disk; for zone of inhibition at 0.8 µg/disc: 800 ng/6.35-mm disk; for zone of inhibition at 1.6 µg/disc: 1600 ng/6.35-mm disk
Description: (§1) The antimicrobial activities (vs. M. luteus) and the cytotoxic activities (vs. CV-1 cells) of the ecteinascidins and ecteinascidin 743 derivatives are shown in Table 1 and 2. […] All of the derivatives of ecteinascidin 743 that were prepared have antimicrobial and cytotoxic activities.

[2] = system: bacteria; assay: Antibacterial Activity (disk zone of inhibition, Example 4); format: cell-based
Excerpt: | Zone of inhibition (mm)

[3] = system: P388 leukemia; assay: In vivo P388 mouse leukemia test; conditions: for T/C (%): Table 4; for antitumor activity (in words): mouse, in vivo; for T/C: Example 6
Excerpt: Compounds of this invention are also active in vivo against P388 leukemia in mice. The P388 mouse leukemia test is described in detail in a publication by G. L. Neil et al., Cancer Treatment Reports, 63: 1971-1978 (1979).

[4] = system: B16 Melanoma; assay: Antitumor activity vs. B16 Melanoma; format: in vivo; conditions: 0.01 mg/kg; Table 5
[5] = system: M. luteus; assay: Antimicrobial activity vs. M. luteus (disk zones of inhibition); format: cell-based; conditions: for zone of inhibition at 0.05 µg/disc / zone of inhibition at 0.1 µg/disc / zone of inhibition at 0.2 µg/disc / zone of inhibition at 0.4 µg/disc / zone of inhibition at 0.8 µg/disc / zone of inhibition at 1.6 µg/disc: Micrococcus luteus; for zone of inhibition at 0.05 µg/disc: 50 ng/6.35-mm disk; for zone of inhibition at 0.1 µg/disc: 100 ng/6.35-mm disk; for zone of inhibition at 0.2 µg/disc: 200 ng/6.35-mm disk; for zone of inhibition at 0.4 µg/disc: 400 ng/6.35-mm disk; for zone of inhibition at 0.8 µg/disc: 800 ng/6.35-mm disk; for zone of inhibition at 1.6 µg/disc: 1600 ng/6.35-mm disk; for antimicrobial activity (in words): dilutions accurate to within a factor of 2
Description: as §1

[6] = system: DNA; assay: biomedical induction assay (BIA), an assay for DNA interaction
[7] = system: Bacillus subtilis syn; assay: Antimicrobial Spectrum, zones of inhibition; format: cell-based; conditions: 10 μg/disk, 6.35-mm disk
[8] = system: Pseudomonas aeruginosa; assay: Antimicrobial Spectrum, zones of inhibition; format: cell-based; conditions: 10 μg/disk, 6.35-mm disk
[9] = system: Staphylococcus aureus; assay: Antimicrobial Spectrum, zones of inhibition; format: cell-based; conditions: 10 μg/disk, 6.35-mm disk
[10] = system: Penicillium oxalicum; assay: Antimicrobial Spectrum, zones of inhibition; format: cell-based; conditions: 10 μg/disk, 6.35-mm disk
[11] = system: Sarcina lutea; assay: Antimicrobial Spectrum, zones of inhibition; format: cell-based; conditions: Micrococcus luteus; 10 μg/disk; 6.35-mm disk
[12] = system: L1210 mouse leukemia cells; assay: L1210 Tube Dilution Assay; format: cell-based
Excerpt: The L1210 tube dilution assay is described in detail in a publication by L. H. Li, et al., Cancer Research, 39:4816 (1979). ID50 and ID90 refer to the concentration of ecteinascidin needed to inhibit cell growth by […], respectively.

[13] = system: Bacillus subtilis; assay: Antimicrobial Spectrum, zones of inhibition; format: cell-based; conditions: 10 μg/disk, 6.35-mm disk
[14] = system: Escherichia coli; assay: Antimicrobial Spectrum, zones of inhibition; format: cell-based; conditions: 10 μg/disk, 6.35-mm disk
[15] = system: Sarcina lutea sens.; assay: Antimicrobial Spectrum, zones of inhibition; format: cell-based; conditions: Micrococcus luteus; 10 μg/disk; 6.35-mm disk
[16] = system: Klebsiella pneumoniae; assay: Antimicrobial Spectrum, zones of inhibition; format: cell-based; conditions: 10 μg/disk, 6.35-mm disk
[17] = system: Saccharomyces cerevisiae; assay: Antimicrobial Spectrum, zones of inhibition; format: cell-based; conditions: 10 μg/disk, 6.35-mm disk
[18] = system: Mycobacterium avium; assay: Antimicrobial Spectrum, zones of inhibition; format: cell-based; conditions: 10 μg/disk, 6.35-mm disk

COc1cc2c(cc1O)CCN[C@]21CS[C@@H]2c3c(OC(C)=O)c(C)c4c(c3[C@H](COC1=O)N1[C@@H]2[C@@H]2N[C@@H](Cc3cc(C)c(OC)c(O)c32)[C@@H]1O)OCO4 [Ecteinascidin 729]
zone of inhibition at 0.05 µg/disc [1]: 9 mm
zone of inhibition at 0.1 µg/disc [1]: 10 mm
zone of inhibition at 0.2 µg/disc [1]: 10 mm
zone of inhibition at 0.4 µg/disc [1]: 13 mm
zone of inhibition at 0.8 µg/disc [1]: 16 mm
zone of inhibition at 1.6 µg/disc [1]: 18 mm
zone of inhibition at 0.063 µg/disc ([2]; 0.063 μg/disk): 19 mm
zone of inhibition at 0.125 µg/disc ([2]; 0.125 μg/disk): 20 mm
zone of inhibition at 0.25 µg/disc ([2]; 0.250 μg/disk): 22 mm
T/C (%) ([3]; 0.0038 mg/kg): 214%
antitumor activity (in words) [3]: strong antitumor activity
antitumor activity (in words) ([3]; listed as Et 729): the most active antitumor agent
T/C (%) [4]: 246%
zone of inhibition at 0.05 µg/disc [5]: 7 mm
zone of inhibition at 0.1 µg/disc [5]: 8 mm
zone of inhibition at 0.2 µg/disc [5]: 11 mm
zone of inhibition at 0.4 µg/disc [5]: 15 mm
zone of inhibition at 0.8 µg/disc [5]: 16 mm
zone of inhibition at 1.6 µg/disc [5]: 18 mm
antimicrobial activity (in words) [5]: approximately equivalent and represent the most potent compounds in the series

COc1cc2c(cc1O)CCN[C@]21CS[C@@H]2c3c(OC(C)=O)c(C)c4c(c3[C@H](COC1=O)N1[C@@H]2[C@H]2c3c(cc(C)c(OC)c3O)C[C@@H]([C@@H]1O)N2C)OCO4 [Ecteinascidin 743]
zone of inhibition at 0.05 µg/disc [1]: 14 mm
zone of inhibition at 0.1 µg/disc [1]: 16 mm
zone of inhibition at 0.2 µg/disc [1]: 20 mm
zone of inhibition at 0.4 µg/disc [1]: 23 mm
zone of inhibition at 0.8 µg/disc [1]: 23 mm
zone of inhibition at 1.6 µg/disc [1]: 28 mm
Zone of inhibition ([2]; 0.005 μg/disk): trace
zone of inhibition at 0.01 µg/disc ([2]; 0.01 μg/disk): 7 mm
zone of inhibition at 0.02 µg/disc ([2]; 0.02 μg/disk): 9 mm
zone of inhibition at 0.05 µg/disc ([2]; 0.05 μg/disk): 12 mm
zone of inhibition at 0.1 µg/disc ([2]; 0.1 μg/disk): 14 mm
zone of inhibition at 0.2 µg/disc ([2]; 0.2 μg/disk): 17 mm
result in biomedical induction assay (BIA) [6]: negative
zone of inhibition at 10 µg/disc [7]: 26 mm
zone of inhibition at 10 µg/disc [8]: 0 mm
zone of inhibition at 10 µg/disc [9]: 19 mm
zone of inhibition at 10 µg/disc [10]: 10 mm
zone of inhibition at 10 µg/disc [11]: 27 mm
IC90 ([12]; L1210, concentration needed to inhibit cell growth by 90 percent, in vitro, read-out: ID90 (the source's name)): 1.7 ng/mL (≈ 2.23 nM)
IC50 ([12]; L1210, read-out: ID50): 0.5 ng/mL (≈ 0.656 nM)
zone of inhibition at 10 µg/disc [13]: 25 mm
zone of inhibition at 10 µg/disc [14]: 11 mm
zone of inhibition at 10 µg/disc [15]: 35 mm
zone of inhibition at 10 µg/disc [16]: 20 mm
T/C (%) ([3]; 0.015 mg/kg): 167%
T/C ([3]; 0.031 mg/kg): 161
T/C ([3]; 0.063 mg/kg): toxic
zone of inhibition at 10 µg/disc [17]: 0 mm
zone of inhibition at 10 µg/disc [18]: 17 mm
zone of inhibition at 0.05 µg/disc [5]: 9 mm
zone of inhibition at 0.1 µg/disc [5]: 12 mm
zone of inhibition at 0.2 µg/disc [5]: 13 mm
zone of inhibition at 0.4 µg/disc [5]: 14 mm
zone of inhibition at 0.8 µg/disc [5]: 20 mm
zone of inhibition at 1.6 µg/disc [5]: 23 mm
antimicrobial activity (in words) [5]: approximately equivalent and represent the most potent compounds in the series
